Experiments:
Experiment in all cases: relative viability (nuclei count vs DMSO), 5 days (fraction); higher = more cells survive
[1] = compound: CC(C)C[C@H](NC(=O)[C@H](CCc1ccccc1)NC(=O)CN1CCOCC1)C(=O)N[C@@H](Cc1ccccc1)C(=O)N[C@@H](CC(C)C)C(=O)[C@@]1(C)CO1 [Carfilzomib] + COc1cccc2cc(-c3nc([C@H]4CC[C@H](C(=O)O)CC4)n4ncnc(N)c34)[nH]c12 [OSI-027] (partner 0.5 µM)
In short: (§1)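 Lung cancer cell lines in 1536-well plates were dosed by pin tool the day after seeding, either with one drug alone or with a fixed anchor-drug dose plus five library-drug doses (not always all listed) in √10 steps. After 5 days, cells were fixed and their nuclei stained in one step (final 0.05% Triton X-100, 1% formaldehyde, 1 ug/ml Hoechst), then counted on 4× images. Relative viability is the nuclei count in treated wells divided by that in vehicle wells. Values are medians of duplicate plates.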

[2] = compound: CC(C)C[C@H](NC(=O)[C@H](CCc1ccccc1)NC(=O)CN1CCOCC1)C(=O)N[C@@H](Cc1ccccc1)C(=O)N[C@@H](CC(C)C)C(=O)[C@@]1(C)CO1 [Carfilzomib] + C[C@@H](Oc1cc(-c2cnn(C3CCNCC3)c2)cnc1N)c1c(Cl)ccc(F)c1Cl [Crizotinib] (partner 1 µM)
In short: as §1

[3] = compound: CC(C)C[C@H](NC(=O)[C@H](CCc1ccccc1)NC(=O)CN1CCOCC1)C(=O)N[C@@H](Cc1ccccc1)C(=O)N[C@@H](CC(C)C)C(=O)[C@@]1(C)CO1 [Carfilzomib] + Nc1ncn([C@H]2C[C@H](O)[C@@H](CO)O2)c(=O)n1 [Decitabine] (partner 2 µM)
In short: as §1

[4] = compound: O=C(c1cc(Cc2n[nH]c(=O)c3ccccc23)ccc1F)N1CCN(C(=O)C2CC2)CC1 [Olaparib] + Cc1cc(Nc2cc(N3CCN(C)CC3)nc(Sc3ccc(NC(=O)C4CC4)cc3)n2)n[nH]1 [Tozasertib] (partner 0.1 µM)
In short: as §1

Row | Cell Line | relative viability ([1]; first compound 0.001 µM) | relative viability ([1]; first compound 0.003162 µM) | relative viability ([1]; first compound 0.01 µM) | relative viability ([1]; first compound 0.03162 µM) | relative viability ([1]; first compound 0.1 µM) | relative viability ([2]; first compound 0.001 µM) | relative viability ([2]; first compound 0.003162 µM) | relative viability ([2]; first compound 0.01 µM) | relative viability ([2]; first compound 0.03162 µM) | relative viability ([2]; first compound 0.1 µM) | relative viability ([3]; first compound 0.001 µM) | relative viability ([3]; first compound 0.003162 µM) | relative viability ([3]; first compound 0.01 µM) | relative viability ([3]; first compound 0.03162 µM) | relative viability ([3]; first compound 0.1 µM) | relative viability ([4]; first compound 0.08 µM) | relative viability ([4]; first compound 0.253 µM) | relative viability ([4]; first compound 2.53 µM) | relative viability ([4]; first compound 8 µM)
1 | 201T | 0.749 | 0.795 | 0.884 | 0.437 | 0.31 | 1.02 | 1.1 | 1.04 | 1.06 | 0.91 | 0.818 | 0.901 | 0.798 | 0.873 | 0.795 | 1.05 | 0.91 | 0.919 | 0.879
2 | A549 |  |  |  |  |  | 0.802 | 0.776 | 0.743 | 0.182 | 0.0494 | 0.167 | 0.292 | 0.109 | 0.254 | 0.0302 |  |  |  | 
3 | A-427 | 0.47 | 0.542 | 0.395 | 0.145 | 0.132 | 0.837 | 0.996 | 0.862 | 0.212 | 0.122 | 0.587 | 0.565 | 0.591 | 0.527 | 0.178 | 0.196 | 0.209 | 0.188 | 0.163
4 | ABC-1 | 0.431 | 0.289 | 0.276 | 0.158 | 0.171 | 1.15 | 0.805 | 0.385 | 0.177 | 0.172 | 1.24 | 1.34 | 0.539 | 0.274 | 0.285 | 0.22 | 0.149 | 0.198 | 0.182
5 | BEN | 0.312 | 0.313 | 0.3 | 0.294 | 0.263 | 0.898 | 1.18 | 0.923 | 0.757 | 0.311 | 0.603 | 0.861 | 0.643 | 0.577 | 0.26 | 0.53 | 0.48 | 0.529 | 0.48
6 | CAL-12T | 0.667 | 0.708 | 0.85 | 0.131 | 0.131 |  | 0.814 | 0.72 | 0.18 | 0.0912 |  |  |  |  |  | 0.345 | 0.259 | 0.281 | 0.235
7 | COR-L23 | 0.455 | 0.908 | 0.762 | 0.144 | 0.0646 | 0.71 | 0.828 | 0.731 | 0.0647 | 0.0659 | 0.383 | 0.443 | 0.386 | 0.0979 | 0.0901 | 0.22 | 0.192 | 0.176 | 0.12
8 | COR-L 105 | 0.805 | 0.82 | 0.699 | 0.271 | 0.191 | 0.84 | 0.743 | 0.608 | 0.262 | 0.17 | 0.621 | 0.752 | 0.751 | 0.466 | 0.34 | 0.368 | 0.351 | 0.319 | 0.275
9 | Calu-6 |  |  |  |  |  | 0.747 | 0.834 | 0.811 | 0.334 | 0.0815 |  |  |  |  |  |  |  |  | 
10 | ChaGo-K-1 | 0.414 | 0.576 | 0.659 | 0.554 | 0.176 |  | 1.2 | 1.18 | 0.634 | 0.303 | 0.476 | 0.55 | 0.494 | 0.322 | 0.174 | 0.286 | 0.198 | 0.232 | 0.197
11 | EBC-1 |  |  |  |  |  | 0.212 | 0.18 | 0.183 | 0.131 | 0.111 |  |  |  |  |  |  |  |  | 
12 | IA-LM |  |  |  |  |  | 0.956 | 0.796 | 0.502 | 0.0235 | 0.0632 |  |  |  |  |  |  |  |  | 
13 | NCI-H522 | 0.585 | 0.731 | 0.634 | 0.461 | 0.456 |  |  |  |  |  | 0.582 | 0.631 | 0.615 | 0.584 | 0.353 | 0.513 | 0.541 | 0.593 | 0.621
14 | NCI-H1299 |  |  |  |  |  | 1.01 | 0.966 | 0.981 | 0.472 | 0.178 |  |  |  |  |  |  |  |  | 
15 | NCI-H1395 | 0.526 | 0.734 | 0.642 | 0.5 | 0.309 |  |  |  |  |  |  | 0.756 | 0.602 | 0.441 | 0.319 | 0.816 | 0.657 | 0.598 | 0.548
16 | NCI-H1563 | 0.775 | 0.71 | 0.797 | 0.705 | 0.586 | 0.939 | 0.902 | 0.897 | 0.711 | 0.397 |  |  |  |  |  |  |  |  | 
17 | NCI-H1623 | 0.449 | 0.462 | 0.46 | 0.374 | 0.312 |  |  |  |  |  |  |  |  |  |  | 0.474 | 0.446 | 0.493 | 0.413
18 | NCI-H1648 |  | 0.272 | 0.256 | 0.255 | 0.298 |  |  |  |  |  | 0.447 | 0.495 | 0.474 | 0.404 | 0.255 |  | 0.482 |  | 0.556
19 | NCI-H1703 |  |  |  |  |  | 0.579 | 0.73 | 0.168 | 0.0733 | 0.0878 |  |  |  |  |  |  |  |  | 
20 | NCI-H1792 | 0.727 | 0.794 | 0.684 | 0.633 | 0.519 | 0.946 | 0.938 | 1.01 | 0.985 | 0.642 |  | 0.592 | 0.619 | 0.542 | 0.207 |  |  |  | 
21 | NCI-H2228 | 0.506 | 0.736 | 0.397 | 0.0668 | 0.0974 | 0.49 | 0.389 | 0.666 | 0.149 | 0.17 |  |  |  |  |  | 0.324 | 0.207 | 0.201 | 0.136
22 | NCI-H2342 | 0.663 | 0.621 | 0.723 | 0.632 | 0.495 |  |  |  |  |  | 0.711 | 0.78 | 0.782 | 0.887 | 0.585 | 0.458 | 0.552 | 0.479 | 0.416
23 | SW 900 | 0.451 | 0.362 | 0.114 | 0.0786 | 0.135 |  |  |  |  |  |  | 0.5 | 0.344 | 0.197 | 0.22 | 0.516 | 0.395 | 0.536 | 0.483
